Measurements reported in patent publication EP0322748B1, “Antibiotic NK86-0279, process for production of the same and application of the same” (NIPPON KAYAKU KABUSHIKI KAISHA, priority 1987, dated 1989).

Tested on: mouse malignant melanoma (B16 melanotic melanoma)
Assay: in-vivo test by intraperitoneal administration against mouse malignant melanoma, tumor volume
Set-up: species or system BDF₁ mouse
Details: 11 days after inoculation
From the text: The anti-cancer action of the compound of the present invention against mouse malignant melanoma (B16 melanotic melanoma) was examined. 4 x 10⁵ mouse malignant melanoma cells were inoculated into a subcutaneous portion of the right body side of a 8 week-old male BDF₁ mouse, and the compound of the present invention was intraperitoneally administered to the mouse in various concentrations every day from the next day of the inoculation once a day for 10 days. On the 11 days after the inoculation the minor axis and the major axis of the tumor were measured, and the volume of the tumor was determined by using the following equation: (minor axis)² x […] [formula] . Then, the percentage inhibition of proliferation of each tumor with respect to the compound of the present invention was determined from the ratio of the volume of the tumor on the groups of administration of the compound of the present invention relative to that on the control group.

CCC1C=CC=CCC(C)C(O)C(C)(O)C(=O)C(C)C(O)C(C)C(=O)C(C)C(O)C(C)C=CC(=O)OC2C(C)C(CC1)OC1(OC(CC(C)O)C(C)CC1=O)C2CC (stereo not drawn) [NK86-0279]
Growth-inhibitory ratio (tumor volume) (0.012 mg/kg intraperitoneally once a day for 10 days): 50.7% | Growth-inhibitory ratio (tumor volume) (0.021 mg/kg intraperitoneally once a day for 10 days): 19.3% | Growth-inhibitory ratio (tumor volume) (0.037 mg/kg intraperitoneally once a day for 10 days): 41.4% | Growth-inhibitory ratio (tumor volume) (0.064 mg/kg intraperitoneally once a day for 10 days): 40.5% | Growth-inhibitory ratio (tumor volume) (0.111 mg/kg intraperitoneally once a day for 10 days): 38.4% | Growth-inhibitory ratio (tumor volume) (0.192 mg/kg intraperitoneally once a day for 10 days): 54.7% | Growth-inhibitory ratio (tumor volume) (0.333 mg/kg intraperitoneally once a day for 10 days): 53.2% | Growth-inhibitory ratio (tumor volume) (0.577 mg/kg intraperitoneally once a day for 10 days): 60.4% | Growth-inhibitory ratio (tumor volume) (1.000 mg/kg intraperitoneally once a day for 10 days): 80%
